Laboratory results from ChEMBL document CHEMBL5584278, “Deciphering the Selectivity of CBL-B Inhibitors Using All-Atom Molecular Dynamics and Machine Learning” (ACS Med Chem Lett, 2024).

How the values were obtained:
[1] = organism: Homo sapiens; test: Selectivity ratio of IC50 for c-CBL (unknown origin) to IC50 for CBL-B (unknown origin)
[2] = target: E3 ubiquitin-protein ligase CBL-B (Homo sapiens, UniProt Q13191); test: Inhibition of CBL-B (unknown origin)
[3] = Inhibition of C-CBL (unknown origin); set-up: species or system Homo sapiens

Sequence of E3 ubiquitin-protein ligase CBL-B (Q13191 whole entry): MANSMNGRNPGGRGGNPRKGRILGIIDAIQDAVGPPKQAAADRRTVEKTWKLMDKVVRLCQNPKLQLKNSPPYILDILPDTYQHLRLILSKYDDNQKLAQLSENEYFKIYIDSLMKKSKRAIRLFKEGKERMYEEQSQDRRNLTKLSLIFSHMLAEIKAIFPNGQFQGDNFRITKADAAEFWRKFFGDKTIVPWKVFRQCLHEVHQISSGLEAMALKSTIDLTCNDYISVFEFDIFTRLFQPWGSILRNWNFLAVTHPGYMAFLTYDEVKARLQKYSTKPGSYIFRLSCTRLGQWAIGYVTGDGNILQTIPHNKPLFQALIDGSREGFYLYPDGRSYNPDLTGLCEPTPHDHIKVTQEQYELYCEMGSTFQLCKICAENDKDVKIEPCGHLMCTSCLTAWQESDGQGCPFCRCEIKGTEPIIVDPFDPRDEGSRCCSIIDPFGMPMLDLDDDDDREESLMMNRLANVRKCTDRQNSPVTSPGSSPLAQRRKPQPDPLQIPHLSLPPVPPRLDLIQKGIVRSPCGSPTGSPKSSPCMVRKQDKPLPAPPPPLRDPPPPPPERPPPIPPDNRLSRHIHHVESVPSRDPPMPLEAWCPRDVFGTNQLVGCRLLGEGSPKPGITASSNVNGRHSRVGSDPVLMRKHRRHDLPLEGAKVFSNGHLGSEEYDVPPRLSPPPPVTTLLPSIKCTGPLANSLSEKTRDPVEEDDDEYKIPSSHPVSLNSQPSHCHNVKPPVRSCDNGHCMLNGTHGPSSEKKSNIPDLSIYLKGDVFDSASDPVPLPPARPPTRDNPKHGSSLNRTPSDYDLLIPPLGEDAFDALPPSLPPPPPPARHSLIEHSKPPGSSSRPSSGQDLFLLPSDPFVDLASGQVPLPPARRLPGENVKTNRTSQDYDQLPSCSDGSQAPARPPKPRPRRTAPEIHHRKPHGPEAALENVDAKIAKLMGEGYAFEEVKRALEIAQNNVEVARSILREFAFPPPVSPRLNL

Compound	Ratio IC50 [1]	IC50 [2] [nM]	IC50 [3] [nM]
COCCNCc1cc(C(F)(F)F)c2oc(-c3cccc(-c4ccc(F)cc4-c4nncn4C)c3)nc2c1	50	~200	~10000
CC1CC(c2cccc(N3C(=O)c4cc(CNC5(C)CCC5)cc5c(F)ccc3c45)c2)(c2nncn2C)C1 (configuration not stated)	10	~16.5	~165
Cn1cnnc1[C@H](c1cccc(N2Cc3c(Cl)cc(CNC4(C)CCC4)cc3C2=O)c1)[C@H]1C[C@@H](F)C1	6.5	~170	~1100
CC1CC(c2cccc(N3Cc4c(cc(CN5CCC[C@H](C)C5)cc4C(F)(F)F)C3=O)c2)(c2nncn2C)C1 (some centres not stated)	4	~5	~20
CC1CC(c2cccc(-c3nc4c(C(F)(F)F)cc(CN5CCC[C@H](C)C5)cc4[nH]3)c2)(c2nncn2C)C1 (some centres not stated)	50		~10000
C[C@H](c1cc(C(F)(F)F)c2nc(-c3cccc(CC4(c5nncn5C)COC4)c3)[nH]c2c1)N1CCC2(CC2)C1	50	~200	~10000
Cn1cnnc1CC1(c2cccc(N3CC4=C(C(F)(F)F)C=C(CN5CCC(C)(F)CC5)CN4C3=O)c2)COC1	10	~6	~60
CC1CC(c2cccc(-c3nc4cc(CN5CCC[C@H](C)C5)cc(C(F)(F)F)c4[nH]3)c2)(c2nncn2C)C1 (some centres not stated)		~200	
CO[C@H]1C[C@@](c2cccc(N3Cc4c(cc(CNC5(C)CCC5)cc4C(F)F)C3=O)c2)(c2nncn2C)C1	6	~25	~150
Cn1cnnc1C1(c2cccc(N3Cc4c(cc(CNC5(C)CCC5)cc4C(F)(F)F)C3=O)c2)CC2(CC(F)(F)C2)C1	6	~21	~120
